Our source for the Kd values is ChEMBL document CHEMBL3991601, “The target landscape of clinical kinase drugs” (Science, 2017).

Active and inactive are the calls of the source. For most assays here, no stated cut-off is given here; in the data, actives have a measured Kd and inactives only a lower limit.

Test [1] concerns the target 26S proteasome regulatory subunit 6B (Homo sapiens, UniProt P43686).
Test [2] has as its target T1, Beta-adrenergic receptor kinase 1 (Homo sapiens, UniProt P25098).
T1 sequence (P25098 whole entry): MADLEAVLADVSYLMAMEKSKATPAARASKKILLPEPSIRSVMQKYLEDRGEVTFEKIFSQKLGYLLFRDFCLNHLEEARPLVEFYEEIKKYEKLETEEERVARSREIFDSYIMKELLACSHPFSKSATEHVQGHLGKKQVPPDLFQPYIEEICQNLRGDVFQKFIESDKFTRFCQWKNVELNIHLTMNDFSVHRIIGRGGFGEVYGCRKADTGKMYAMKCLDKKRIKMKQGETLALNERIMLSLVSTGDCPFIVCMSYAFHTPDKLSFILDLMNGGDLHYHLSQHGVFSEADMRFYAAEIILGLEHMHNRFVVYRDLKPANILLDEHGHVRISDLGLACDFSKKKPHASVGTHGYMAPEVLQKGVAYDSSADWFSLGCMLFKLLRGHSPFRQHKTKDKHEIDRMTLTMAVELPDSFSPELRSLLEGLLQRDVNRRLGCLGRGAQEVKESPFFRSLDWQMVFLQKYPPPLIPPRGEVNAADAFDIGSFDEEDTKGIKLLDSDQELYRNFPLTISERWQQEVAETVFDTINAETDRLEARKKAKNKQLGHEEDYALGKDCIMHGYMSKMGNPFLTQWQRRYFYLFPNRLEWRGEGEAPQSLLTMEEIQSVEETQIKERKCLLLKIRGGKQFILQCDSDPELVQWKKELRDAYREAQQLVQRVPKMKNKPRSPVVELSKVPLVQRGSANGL

In test [3] the target is T2, AarF domain-containing protein kinase 1 (Homo sapiens, UniProt Q86TW2).
T2 sequence (Q86TW2 whole entry): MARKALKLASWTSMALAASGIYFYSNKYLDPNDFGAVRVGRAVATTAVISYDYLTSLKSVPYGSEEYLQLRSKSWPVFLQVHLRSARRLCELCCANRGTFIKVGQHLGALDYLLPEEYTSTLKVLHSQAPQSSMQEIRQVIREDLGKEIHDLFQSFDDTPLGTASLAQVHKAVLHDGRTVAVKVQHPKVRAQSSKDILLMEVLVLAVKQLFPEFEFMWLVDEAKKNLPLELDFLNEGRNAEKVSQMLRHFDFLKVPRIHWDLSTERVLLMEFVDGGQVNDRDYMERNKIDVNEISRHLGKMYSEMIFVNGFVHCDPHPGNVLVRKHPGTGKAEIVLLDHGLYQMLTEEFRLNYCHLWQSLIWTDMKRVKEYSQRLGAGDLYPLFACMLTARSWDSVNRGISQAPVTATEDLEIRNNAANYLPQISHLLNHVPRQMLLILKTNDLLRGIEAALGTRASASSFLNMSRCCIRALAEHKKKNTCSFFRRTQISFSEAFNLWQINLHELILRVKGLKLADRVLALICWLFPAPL

Test [4] addresses T3, Serine/threonine-protein kinase PLK4 (Homo sapiens, UniProt O00444).
T3 sequence (O00444 whole entry): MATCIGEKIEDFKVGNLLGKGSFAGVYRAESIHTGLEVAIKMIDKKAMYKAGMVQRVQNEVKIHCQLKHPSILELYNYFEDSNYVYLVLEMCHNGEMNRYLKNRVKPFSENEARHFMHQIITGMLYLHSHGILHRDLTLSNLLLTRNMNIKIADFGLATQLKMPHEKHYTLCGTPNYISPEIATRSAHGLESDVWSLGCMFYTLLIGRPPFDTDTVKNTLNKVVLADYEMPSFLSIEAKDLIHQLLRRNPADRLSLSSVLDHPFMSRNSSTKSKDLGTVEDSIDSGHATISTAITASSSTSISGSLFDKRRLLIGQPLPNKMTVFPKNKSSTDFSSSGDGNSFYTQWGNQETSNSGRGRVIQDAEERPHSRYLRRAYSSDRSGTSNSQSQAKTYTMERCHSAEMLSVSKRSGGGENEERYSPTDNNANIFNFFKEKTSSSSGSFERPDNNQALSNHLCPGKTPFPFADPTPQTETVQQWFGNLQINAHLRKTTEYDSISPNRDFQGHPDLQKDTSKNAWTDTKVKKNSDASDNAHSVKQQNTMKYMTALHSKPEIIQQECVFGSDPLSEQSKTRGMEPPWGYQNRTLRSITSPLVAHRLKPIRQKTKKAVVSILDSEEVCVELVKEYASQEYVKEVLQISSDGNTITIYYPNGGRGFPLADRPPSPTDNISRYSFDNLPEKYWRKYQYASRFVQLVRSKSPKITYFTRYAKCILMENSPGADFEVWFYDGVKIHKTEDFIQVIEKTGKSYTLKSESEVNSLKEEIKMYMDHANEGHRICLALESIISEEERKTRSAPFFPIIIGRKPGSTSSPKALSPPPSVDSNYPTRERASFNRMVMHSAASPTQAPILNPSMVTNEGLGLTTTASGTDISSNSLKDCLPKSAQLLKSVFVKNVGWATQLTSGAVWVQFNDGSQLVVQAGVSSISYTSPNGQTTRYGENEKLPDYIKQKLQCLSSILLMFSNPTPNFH

For test [5], the target named is Adenylate kinase 2, mitochondrial (Homo sapiens, UniProt P54819).
A further test deals with T4, Activin receptor type-1B (Homo sapiens, UniProt P36896).
T4 sequence (P36896 whole entry): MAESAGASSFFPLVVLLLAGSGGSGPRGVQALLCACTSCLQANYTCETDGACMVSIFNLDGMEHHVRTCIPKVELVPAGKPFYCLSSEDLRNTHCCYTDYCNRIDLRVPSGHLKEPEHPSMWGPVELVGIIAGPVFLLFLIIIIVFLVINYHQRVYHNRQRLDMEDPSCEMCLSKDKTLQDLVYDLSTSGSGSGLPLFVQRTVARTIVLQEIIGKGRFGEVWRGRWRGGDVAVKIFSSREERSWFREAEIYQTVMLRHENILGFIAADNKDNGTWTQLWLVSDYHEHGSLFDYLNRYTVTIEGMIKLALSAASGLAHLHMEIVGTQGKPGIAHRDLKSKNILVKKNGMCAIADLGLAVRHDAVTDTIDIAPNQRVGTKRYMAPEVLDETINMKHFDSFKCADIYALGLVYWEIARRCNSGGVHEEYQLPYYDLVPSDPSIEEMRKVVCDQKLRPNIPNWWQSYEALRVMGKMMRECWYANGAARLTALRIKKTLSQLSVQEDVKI

Test [6] addresses Tyrosine-protein kinase SYK (Homo sapiens, UniProt P43405).

Sequence of 26S proteasome regulatory subunit 6B (P43686 whole entry): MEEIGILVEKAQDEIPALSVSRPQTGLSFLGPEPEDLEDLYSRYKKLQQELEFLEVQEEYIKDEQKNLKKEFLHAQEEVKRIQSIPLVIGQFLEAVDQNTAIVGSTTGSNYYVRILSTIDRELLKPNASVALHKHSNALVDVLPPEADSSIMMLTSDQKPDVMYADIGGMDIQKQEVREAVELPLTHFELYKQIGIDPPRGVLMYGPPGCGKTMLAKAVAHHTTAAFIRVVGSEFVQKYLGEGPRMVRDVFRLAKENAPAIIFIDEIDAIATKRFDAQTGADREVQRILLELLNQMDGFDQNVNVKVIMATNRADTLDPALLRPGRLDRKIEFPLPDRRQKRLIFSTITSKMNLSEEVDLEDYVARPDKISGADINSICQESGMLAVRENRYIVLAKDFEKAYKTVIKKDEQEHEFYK

`CNC(=O)c1ccc(Nc2ncc(C(F)(F)F)c(NCc3nccnc3N(C)S(C)(=O)=O)n2)cc1` [DEFACTINIB]: the Kd (in test [1]; in test [2]; in test [3]; in test [4]; in test [5]; on Activin receptor type-1B) was > 30 µM (inactive) in each case. Besides, the Kd (in general, the free concentration of one partner at which half of the binding sites on the other are occupied at equilibrium, for simple one-to-one binding) in test [6] was > 30 µM (inactive).

As to `Cc1cc(C(=O)Nc2cc(Oc3ccc4nc(NC(=O)C5CC5)cn4n3)ccc2C)n(C)n1` [TAK-593], the Kd (in test [1]; in test [2]; in test [3]; in test [4]; in test [5]; on Activin receptor type-1B) was > 30 µM (inactive) each time. Moreover, the Kd in test [6] is > 30 µM (inactive).

Turning to `O=C(O)c1ccc2c(c1)nc(Nc1cccc(Cl)c1)c1ccncc12` [SILMITASERTIB], the Kd (in test [1]; in test [2]; in test [3]; in test [4]; in test [5]; on Activin receptor type-1B) was > 30 µM (inactive) in each case. The Kd in test [6] was > 30 µM (inactive).

For `CCN(CCCOc1ccc2c(Nc3cc(CC(=O)Nc4cccc(F)c4)n[nH]3)ncnc2c1)CCOP(=O)(O)O` [BARASERTIB], the Kd (in test [1]; in test [2]; in test [3]; in test [4]; in test [5]; at Activin receptor type-1B) was > 30 µM (inactive) throughout. Besides, the Kd in test [6] is > 30 µM (inactive).

On to `c1cc(OCCN2CCCCC2)cc(-c2n[nH]c3ccc(-c4nc[nH]n4)cc23)c1` [CC-401], for which the Kd (in test [1]; in test [2]; in test [3]; in test [4]; in test [5]; on Activin receptor type-1B) was > 30 µM (inactive) throughout. In test [6], the Kd was > 30 µM (inactive).

With `O=S(=O)(c1cccc2c(O)nccc12)N1CCCNCC1` [HYDROXYFASUDIL], the Kd (in test [1]; in test [2]; in test [3]; in test [4]; in test [5]; at Activin receptor type-1B) was > 30 µM (inactive) throughout. In test [6], the Kd was > 30 µM (inactive).

Regarding `CCN1CCN(Cc2ccc(Nc3ncc(F)c(-c4cc(F)c5nc(C)n(C(C)C)c5c4)n3)nc2)CC1` [ABEMACICLIB], the Kd in test [1] was > 30 µM (inactive); in test [2], > 30 µM (inactive); in test [3], 0.04 µM (active); in test [4] it was > 30 µM (inactive); in test [5] it was > 30 µM (inactive); on Activin receptor type-1B it was > 30 µM (inactive). Besides, the Kd in test [6] was > 30 µM (inactive).

In the case of `C=CC(=O)Nc1cccc(Nc2nc(Nc3ccc(N4CCN(C(C)=O)CC4)cc3OC)ncc2C(F)(F)F)c1` [ROCILETINIB], the Kd (in test [1]; in test [2]; in test [3]; in test [4]; in test [5]; on Activin receptor type-1B) was > 30 µM (inactive) each time. Moreover, in test [6], the Kd was > 30 µM (inactive).

In the case of `O=c1[nH]c([C@@H]2CCCN2)nc2c1oc1ccc(Cl)cc12`, the Kd (in test [1]; in test [2]; in test [3]; in test [4]; in test [5]; at Activin receptor type-1B) was > 30 µM (inactive) in each case. Moreover, the Kd in test [6] is > 30 µM (inactive).

With `Cc1c(Cn2c(C)nc3c(C(=O)O)cc(N4CCOCC4)cc32)cccc1C(F)(F)F` [GSK-2636771], the Kd (in test [1]; in test [2]; in test [3]; in test [4]; in test [5]; on Activin receptor type-1B) was > 30 µM (inactive) each time. The Kd in test [6] is > 30 µM (inactive).

On to `COc1cc2ncnc(Nc3ccc(O)cc3)c2cc1OC` [WHI-P131], for which the Kd (in test [1]; in test [2]; in test [3]; in test [4]; in test [5]; on Activin receptor type-1B) was > 30 µM (inactive) each time. Also, the Kd in test [6] was > 30 µM (inactive).

`Cn1c(=O)c(F)c(Nc2ccc(I)cc2F)c2c(=O)n(C[C@@H](O)CO)cnc21` [TAK-733]: the Kd (in test [1]; in test [2]; in test [3]; in test [4]; in test [5]; on Activin receptor type-1B) was > 30 µM (inactive) in each case. Further, the Kd in test [6] was > 30 µM (inactive).

As for `COc1cccc(Nc2ncnn3ccc(CN4CC[C@@H](N)[C@H](O)C4)c23)c1` [BMS-690514], the Kd (in test [1]; in test [2]; in test [3]; in test [4]; in test [5]; at Activin receptor type-1B) was > 30 µM (inactive) in each case. Also, the Kd in test [6] is > 30 µM (inactive).

As to `S=C(NCc1ccc2c(c1)OCO2)N1CCN(c2ncnc3c2oc2ccccc23)CC1` [AMUVATINIB], the Kd (in test [1]; in test [2]; in test [3]; in test [4]; in test [5]; on Activin receptor type-1B) was > 30 µM (inactive) in each case. The Kd in test [6] is > 30 µM (inactive).
